Assays:
HFD-fed mice [1] = test: Hepatic steatosis, adipose tissue size and adipocyte morphology; type: in vivo; conditions: treated five weeks
[2] = system: C57BL/6J mice fed with high fat diet (HFD); test: Prevention of high fat diet-induced obesity (body weight, MRI body composition); type: in vivo; conditions: male mice, HFD five weeks, 0.5 mg/kg once a week
Protocol: Eight-week male C57BL/6J mice were fed with high fat diet (HFD) for five weeks and simultaneously treated with the CAR agonist TCPOBOP (0.5 mg/kg, once a week) or vehicle (DMSO). […] The effect of TCPOBOP on the fat mass was so dramatic that the differences were obvious and significant after one week of drug treatment (FIGS. 1A-b and 1A-c). At the end of five-week treatment, the body weight differences between TCPOBOP group and vehicle group were completely accountable by the gain of fat mass in the TCPOBOP group (FIG. 1B).

CAR-/- mice = test: Lipogenic and gluconeogenic gene expression in CAR-/- mice; type: in vivo; conditions: C57BL/6J and SvJ129 mixed background, HFD five week
Excerpt: The suppression of lipogenic and gluconeogenic gene expression was also seen in TCPOBOP-treated wild type mice of C57BL/6J and SvJ129 mixed background (data not shown).

ob/ob mice [3] = test: Obesity in genetically leptin deficient ob/ob mice; type: in vivo
Excerpt: TCPOBOP was also effective in the genetically leptin deficient and obese ob/ob mice. In this experiment, 7-week old female ob/ob mice were maintained in chow diet and treated with TCPOBOP or vehicle for eight weeks.

[4] = system: BAT genes involved in energy expenditure; test: BAT energy expenditure gene expression and oxygen consumption; parameters: species or system mice; conditions: mouse, in vivo
Excerpt: BAT plays an important role in regulating energy expenditure. The smaller BAT in TCPOBOP-treated mice prompted an examination of the expression of BAT genes involved in energy expenditure.

[5] = system: lipogenic genes (Srebp-1c, Acc-1, Fas, Scd-1) and gluconeogenic enzymes (G6p, Pepck); test: Lipogenic and gluconeogenic gene expression in tissues of HFD-fed mice; type: in vivo
Excerpt: To understand the mechanisms by which CAR inhibits obesity and improves insulin sensitivity, gene expression was profiled in several relevant tissues, including the liver, skeletal muscle, white adipose tissue (WAT) and brown adipose tissue (BAT) in HFD-fed C57BL/6J mice treated with TCPOBOP for one week.
Since excessive VLDL production and triglyceride secretion contribute to the pathogenesis of hypertriglyceridemia, obesity and diabetes, VLDL secretion rate after a 5-week TCPOBOP treatment also was evaluated. […] The inhibition of VLDL secretion was consistent with the lower serum triglyceride level (data not shown) and inhibition of hepatic lipogenesis (FIG. 5A) in these animals.

HFD-fed mice [6] = test: VLDL secretion rate; type: in vivo; conditions: after 5-week treatment
[7] = system: gastrocnemius muscle derived from HFD-fed mice; test: Mitochondrial β-oxidation rate in gastrocnemius muscle ([14C]-oleate)
Excerpt: (§1) The effect of TCPOBOP on the fatty acid oxidation in the liver and skeletal muscle also was investigated. […] These include the suppression of long-chain acyl-CoA dehydrogenase (Aacdl), medium-chain acyl CoA dehydrogenase (Acadm) and HMG-CoA synthase (HMGCS2).

[8] = system: PPARα and its target genes; test: Expression of beta-oxidation genes in liver and skeletal muscle; type: in vivo, mice
Excerpt: as §1

[9] = system: adipose triglyceride lipase (ATGL), hormone sensitive lipase (HSL); test: Lipase expression in WAT; parameters: species or system mice; conditions: mouse, in vivo
Cyp2b10 = conditions: 0.5 mg/kg once a week
HFD-fed mice [10] = test: Leptin and adiponectin production and food intake; type: in vivo
Excerpt: Leptin is an adipokine primarily produced in WAT. […] HFD induced leptin mRNA expression as expected (FIG. 8A). […] The decreased production of leptin may have resulted from decreased fat mass, and the inhibition of food intake may have contributed to the anti-obesity effect.

[11] = system: HFD-fed C57BL/6J male mice; test: Insulin sensitivity by GTT and ITT, HFD-fed mice; type: in vivo; conditions: five weeks treatment
Excerpt: (§2) Since obesity is strongly associated with insulin resistance, a typical characteristic of type two diabetes, whether the CAR agonist can also improve insulin sensitivity was examined. […] The insulin sensitizing effect of TCPOBOP was also evident in ob/ob mice (FIGS. 3C and 3D).

ob/ob mice [12] = test: Insulin sensitivity by GTT and ITT, ob/ob mice; type: in vivo
Excerpt: as §2

[13] = system: C57BL/6J female mice fed with HFD; test: Treatment of pre-existing HFD-induced obesity; type: in vivo
Protocol: To determine whether CAR activation is effective in controlling obesity in mice with pre-existing obesity, C57BL/6J female mice were fed with HFD for six weeks, followed by 6 weeks of TCPOBOP (0.5 mg/kg, once a week) treatment when mice remained on HFD.

ob/ob mice [14] = test: Fasting serum glucose and lipid profile, ob/ob mice; type: in vivo
Excerpt: as §2

HFD-fed C57BL/6j mice = test: Fasting serum glucose and lipid profile, HFD-fed mice; type: in vivo
Excerpt: as §2

[15] = HFD-fed C57BL/6J mice, treated one week
[16] = short-term (one week) treatment

## Clc1cnc(Oc2ccc(Oc3ncc(Cl)cc3Cl)cc2)c(Cl)c1 [TCPOBOP, 1,4-bis[2-(3,5 dichloropyridyloxy)] benzene]
HFD-fed mice [1]
  adipocyte morphology: adipocyte hypotrophy
  hepatic steatosis: ameliorated hepatic steatosis
  sizes of abdomen WAT and BAT: decreased sizes of abdomen WAT and BAT
[2]
  lean mass, TCPOBOP vs vehicle group: not significantly different
[2]; after two weeks of drug treatment, vs vehicle (DMSO)
  gain of body weight: significantly inhibited gain of body weight
[2]; ratio decreased in vehicle-treated mice
  lean to body weight ratio: remained steady
[2]; vs vehicle
  gain of fat mass (MRI): significantly inhibited the gain of fat mass
CAR-/- mice
  expression of lipogenic and gluconeogenic genes in liver, skeletal muscle, WAT, BAT: none of the lipogenic and gluconeogenic genes was significantly altered
ob/ob mice [3]; 7-week old female ob/ob mice, chow diet, eight weeks treatment
  gain of fat mass: less gain of fat mass
ob/ob mice [3]; end of eight week treatment
  body weight vs vehicle group: significantly lower body weight
  fat mass: deceased fat mass
  lean mass: increased lean mass
[4]
  BAT expression of PGC-1b, mCPT-I, LCAD, D2, UCP-1, UCP-2 and UCP-3: significantly increased
  oxygen consumption: increased oxygen consumption
[5]; [15]
  Fas and Scd-1 gene expression in skeletal muscle, BAT and WAT: Significant inhibition
  expression of Acc-1 in BAT: significantly inhibited
  expression of lipogenic genes Srebp-1c, Acc-1, Fas and Scd-1 in the liver: suppressed the expression of lipogenic genes
[5]; after 5-week treatment
  expression of glucose-6-phosphatase (G6p) and phosphoenolpyruvate carboxykinase (Pepck): significantly inhibited
HFD-fed mice [6]
  VLDL secretion rate vs vehicle group: significantly reduced
[7]; pyruvate added to incubation buffer, vehicle mitochondria failed to switch
  substrate switch on addition of pyruvate: showed significant switch
[7]; vs vehicle group
  accumulation of radiolabeled intermediates in the acid-soluble metabolite (ASM) (incomplete β-oxidation): much more dramatic reduction
  rate of [14C]-oleate oxidation to CO2 (complete β-oxidation): modest, although significant, decrease
[8]; chronic (five weeks) treatment
  expression of PPARα and its target genes involved in β-oxidation and ketogenesis, liver and skeletal muscle: significantly suppressed
[8]; [16]
  expression of PPARα: modestly suppressed
  expression of genes related to β-oxidation: little effect
[9]
  expression of adipose triglyceride lipase (ATGL) in WAT: induced in WAT
  expression of hormone sensitive lipase (HSL) in WAT: but not the hormone sensitive lipase (HSL)
Cyp2b10
  Cyp2b10 gene expression in the liver: activation of Cyp2b10
HFD-fed mice [10]; HFD-fed mice
  expression of adiponectin: increased expression of adiponectin
  leptin mRNA level vs vehicle-treated counterparts: dramatically lower
  leptin production at the protein level: decreased leptin production
HFD-fed mice [10]; mouse, in vivo
  food intake: significantly reduced the food intake
[11]
  insulin sensitivity (GTT and ITT): significantly improved insulin sensitivity
ob/ob mice [12]
  insulin sensitizing effect (GTT and ITT): also evident
[13]; HFD six weeks, then 6 weeks 0.5 mg/kg once a week on HFD
  fat mass: inhibition of gain of fat mass
[13]; HFD six weeks, then 6 weeks 0.5 mg/kg once a week on HFD, vehicle group continued to gain
  body weight course: stabilized the mouse body weight
[13]; after 5 weeks of drug treatment
  body weight vs vehicle group: significantly lower than the vehicle group
ob/ob mice [14]
  Free Fatty Acid: 21.4 ± 1.54 µM
  Total Cholesterol: 90.2 ± 9.9 mg/dL
  Total Triglyceride: 126.3 ± 13.7 mg/dL
HFD-fed C57BL/6j mice
  Fasting Glucose: 102.8 ± 17.7 mg/dL
HFD-fed C57BL/6j mice; fasting serum
  Free Fatty Acid: 6.8 ± 0.6 µM
  Insulin: 1.57 ± 0.37 ng/mL
  Total Cholesterol: 89.7 ± 5.3 mg/dL
  Total Triglyceride: 132.8 ± 17.7 mg/dL

Reference: patent US20120003335A1, “CONSTITUTIVE ANDROSTANE RECEPTOR (CAR) AS A THERAPEUTIC TARGET FOR OBESITY AND TYPE TWO DIABETES” (UNIVERSITY OF PITTSBURGH-OF THE COMMONWEALTH SYSTEM OF …, priority 2008, published 2012)
